Data published in publication PMC9320964, “Improving the Therapeutic Index of Smp24, a Venom-Derived Antimicrobial Peptide: Increased Activity against Gram-Negative Bacteria” (International Journal of Molecular Sciences, 2022).
In brackets after ≈: the same amount, converted by molar mass. Marks after values point to notes of the source that are not given here. Residues, ends and D or L forms follow the SMILES beside them. No end group written: not given here.

Columns and labels:
Type in all cases: cell-based
[1] = test system: Staphylococcus aureus SH1000; assay: MIC by broth microdilution; conditions: Muller Hinton broth, turbidity A600 nm
Method: (§1) The bacterial isolates used in this study (Escherichia coli JM109, Staphylococcus aureus SH1000 and Pseudomonas aeruginosa H085180216) were obtained from the culture collection held at Sheffield Hallam University.
(§2) All antimicrobial assays were performed by a broth microdilution method in Muller Hinton (MH) broth using a CLARIOstar plate reader (BMG Labtech, Offenburg, Germany) to determine the minimum inhibitory concentration (MIC). The MIC was defined as the lowest concentration of antimicrobial peptide at which growth was inhibited when viewed as turbidity (A600 nm) against a negative broth control. To determine the minimum bactericidal concentration (MBC), 5 µL aliquots were taken from the wells of the MIC plate and spot-plated onto MH agar in triplicate. The plates were incubated for 18–24 h at 37 °C.

Escherichia coli JM109 [2] = assay: MIC by broth microdilution; conditions: Muller Hinton broth, turbidity A600 nm
Method: as §1, §2

[3] = test system: Pseudomonas aeruginosa H085180216; assay: MIC by broth microdilution; conditions: Muller Hinton broth, turbidity A600 nm
Method: as §1, §2

[4] = test system: Staphylococcus aureus SH1000; assay: MBC by spot-plating from MIC plate; conditions: 5 µL aliquots of MIC plate spot-plated onto MH agar in triplicate, 18–24 h at 37 °C
Method: as §1, §2

Escherichia coli JM109 [5] = assay: MBC by spot-plating from MIC plate; conditions: 5 µL aliquots of MIC plate spot-plated onto MH agar in triplicate, 18–24 h at 37 °C
Method: as §1, §2

[6] = test system: Pseudomonas aeruginosa H085180216; assay: MBC by spot-plating from MIC plate; conditions: 5 µL aliquots of MIC plate spot-plated onto MH agar in triplicate, 18–24 h at 37 °C
Method: as §1, §2

HepG2 cells = assay: LDH cytotoxicity assay; conditions: LDH release, human liver HepG2 cells, 0–512 µg/mL, 24 h, 37 °C, triplicate on 2 separate occasions
Method: (§3) An LDH assay (Fisher, Loughborough, UK) was used to determine the cytotoxic potential of the peptides against liver (HepG2) and kidney (HEK293) cells. Cells were grown in accordance with the manufacturer’s protocols. Cells were grown in DMEM containing 1 g/L D-glucose, 10% foetal bovine serum and 1% penicillin-streptomycin. Cells were grown to 80% confluence (37 °C, 5% CO2), washed twice with PBS, trypsinised, re-suspended and seeded at a density of […] in a 96-well plate. Cells were incubated for 24 h, and peptides or lipopeptide antibiotics (0–512 µg/mL) were added and incubated at 37 °C, 5% CO2 for 24 h. LDH release was determined via the manufacturer’s methods. All assays were performed in triplicate on 2 separate occasions. Triton X-100 (10%) was used as a positive control and deionised water as a negative control. Absorbance was read at 490 nm and 680 nm on a plate reader (CLARIOstar). LD50 values were calculated by plotting a dose–response curve and determining the dosage that would cause 50% cell death.

HEK293 cells = assay: LDH cytotoxicity assay; conditions: LDH release, human kidney HEK293 cells, 0–512 µg/mL, 24 h, 37 °C, triplicate on 2 separate occasions
Method: as §3

sheep erythrocytes = assay: Haemolysis assay; conditions: peptides 0–512 µg/mL, triplicate, 10% Triton X-100 positive control
Method: Haemolytic activity was determined on sheep erythrocytes as described by Corzo, 2001 [23]. All samples were tested in triplicate and results given as HC50 values. Peptides were examined in the range of 0–512 µg/mL. 10% Triton X-100 was used as a positive control and deionised water with PBS as a negative control.

For `CCCCCCCCCC(=O)N[C@@H](Cc1c[nH]c2ccccc12)C(=O)N[C@H](CC(N)=O)C(=O)N[C@@H](CC(=O)O)C(=O)N[C@@H]1C(=O)NCC(=O)N[C@@H](CCCN)C(=O)N[C@@H](CC(=O)O)C(=O)N[C@H](C)C(=O)N[C@@H](CC(=O)O)C(=O)NCC(=O)N[C@H](CO)C(=O)N[C@@H]([C@H](C)CC(=O)O)C(=O)N[C@@H](CC(=O)c2ccccc2N)C(=O)O[C@@H]1C` [Daptomycin], the “MIC S. aureus” value [1] was 4 µg/mL (≈ 2.47 µM), the “MIC E. coli” value (Escherichia coli JM109 [2]) was over 512 µg/mL and the “MIC P. aeruginosa” value [3] was over 512 µg/mL. The “MBC S. aureus” value [4] was 8 µg/mL (≈ 4.94 µM), the “MBC E. coli” value (Escherichia coli JM109 [5]) was over 512 µg/mL and the “MBC P. aeruginosa” value [6] was over 512 µg/mL. The “LD50 HepG2” value (HepG2 cells) was over 512 µg/mL, the “LD50 HEK293” value (HEK293 cells) was over 512 µg/mL and the HC50 (sheep erythrocytes) was over 512 µg/mL. The HC50 (sheep erythrocytes; listed as daptomycin) was at least 512 µg/mL.
With `CC[C@H](C)CCCCC(=O)N[C@@H](CCN)C(=O)N[C@H](C(=O)N[C@@H](CCN)C(=O)N[C@H]1CCNC(=O)[C@H]([C@@H](C)O)NC(=O)[C@H](CCN)NC(=O)[C@H](CCN)NC(=O)[C@H](CC(C)C)NC(=O)[C@@H](Cc2ccccc2)NC(=O)[C@H](CCN)NC1=O)[C@@H](C)O` [Polymyxin B] (HELM PEPTIDE1{[CC[C@H](C)CCCCC(=O)[*:2]].[Dab].T.[Dab].[Dab].[Dab].[dF].L.[Dab].[Dab].T}$PEPTIDE1,PEPTIDE1,5:R3-11:R2$$$V2.0; N-terminus assumed; bridges inferred) the “MIC S. aureus” value [1] was 32 µg/mL (≈ 26.6 µM), the “MIC E. coli” value (Escherichia coli JM109 [2]) was 2 µg/mL (≈ 1.66 µM) and the “MIC P. aeruginosa” value [3] was 2 µg/mL (≈ 1.66 µM). The “MBC S. aureus” value [4] was 64 µg/mL (≈ 53.2 µM), the “MBC E. coli” value (Escherichia coli JM109 [5]) was 4 µg/mL (≈ 3.32 µM) and the “MBC P. aeruginosa” value [6] was 8 µg/mL (≈ 6.65 µM). For the same compound, the “LD50 HepG2” value (HepG2 cells) was over 512 µg/mL, the “LD50 HEK293” value (HEK293 cells) was 351 µg/mL and the HC50 (sheep erythrocytes) was over 512 µg/mL. For the same compound, the HC50 (sheep erythrocytes; listed as polymyxin B) was at least 512 µg/mL.
IASFLIKAATKLLPSLFGGGKKDS [Smp24 W2A] gave an HC50 (sheep erythrocytes; listed as W2A) of over 512 µg/mL.
Compound IWSALIKAATKLLPSLFGGGKKDS [Smp24 F4A] has an HC50 (sheep erythrocytes; listed as F4A) of 423 µg/mL.
With IWSFLIFAATKLLPSLFGGGKKDS [Smp24 K7F] the HC50 (sheep erythrocytes; listed as K7F) was 442 µg/mL.
In the case of IWSFLIKAATKLLPSLFGGGKKFS [Smp24 D23F], the “MIC S. aureus” value [1] is reported as 32 µg/mL, the “MIC E. coli” value (Escherichia coli JM109 [2]) is reported as 32 µg/mL and the “MIC P. aeruginosa” value [3] is reported as 64 µg/mL. For the same compound, the “MBC S. aureus” value [4] was 32 µg/mL, the “MBC E. coli” value (Escherichia coli JM109 [5]) was 32 µg/mL and the “MBC P. aeruginosa” value [6] was 64 µg/mL. The “LD50 HepG2” value (HepG2 cells) was >512 * μg/mL, the “LD50 HEK293” value (HEK293 cells) was 38 µg/mL and the HC50 (sheep erythrocytes) was 33 * μg/mL.
